Assay results: US6348461B1, “6,7-asymmetrically disubstituted quinoxalinecarboxylic acid derivatives, addition salts thereof, and processes for the preparation of both” (Kyorin Pharmaceutical Co., Ltd., priority 1997, dated 2002)
Where a name gives a salt, the structure may show the parent alone.

How the values were obtained:
AMPA receptor = test: Binding experiment to AMPA receptor ([3H]-AMPA displacement, crude synaptosome membrane preparations); design: species or system rats; settings: crude synaptosome membranes from rat cerebral cortex; [3H]-AMPA 5 nM; potassium thiocyanate 100 mM; 30 minutes at 0° C.; Ki converted from IC50
Method: Binding Experiment to AMPA Receptor
After the reactions were stopped by suction filtration, the radio activity on the filter was measured with liquid scintillation counter. The specific binding of [^3H]-AMPA was determined by subtracting nonspecific binding level in the presence of glutamic acid (0.1 mM) from overall binding level.

Structure (SMILES) | Ki (AMPA receptor) | melting point
O=C(Nc1ccccc1)OCc1cn(-c2cc3nc(C(=O)O)c(=O)[nH]c3cc2[N+](=O)[O-])ccc1=O [Example 121, 3,4-Dihydro-6-nitro-3-oxo-7-(3-((N-phenylcarbamoyloxy)methyl)-4-pyridone-1-yl)quinoxaline-2-carboxylic Acid] | 172 nM | 230 to 232 °C (dec.)
O=C(O)c1nc2cc(-n3ccc(=O)cc3)c([N+](=O)[O-])cc2[nH]c1=O [Example 37, 3,4-Dihydro-6-nitro-3-oxo-7-(4-pyridone-1-yl)quinoxaline-2-carboxylic Acid] | 330 nM | 283 to 285 °C
Cl.O=C(O)c1nc2cc(Cn3ccnc3)c([N+](=O)[O-])cc2[nH]c1=O [Example 66, 3,4-Dihydro-7-(imidazole-1-yl)methyl-6-nitro-3-oxoquinoxaline-2-carboxylic Acid Hydrochloride] | 360 nM | > 300 °C
O=C(NCc1cn(-c2cc3nc(C(=O)O)c(=O)[nH]c3cc2[N+](=O)[O-])cn1)Nc1ccccc1F [Example 118, 3,4-Dihydro-7-(4-(((2-fluorophenyl)aminocarbonylamino)methyl)imidazolyl)-6-nitro-3-oxoquinoxaline-2-carboxylic Acid] | – | 300 °C
O=C(NCc1ccn(-c2cc3nc(C(=O)O)c(=O)[nH]c3cc2C(F)(F)F)c1)Nc1ccc(C(=O)O)cc1 [Example 79, 7-(3-(((4-Carboxyphenyl)aminocarbonylamino)-methyl)pyrrole-1-yl)-3,4-dihydro-3-oxo-6-trifluoromethylquinoxaline-2-carboxylic Acid] | – | 234 to 236 °C (dec.)
CCOC(=O)c1ccc(NC(=O)OCc2cn(-c3cc4nc(C(=O)O)c(=O)[nH]c4cc3[N+](=O)[O-])ccc2=O)cc1 [Example 306, 7-(3-((N-(4-Ethoxycarbonylphenyl)carbamoyloxy)methyl)-4-pyridone-1-yl)-3,4-dihydro-6-nitro-3-oxoquinoxaline-2-carboxylic Acid] | – | 201 to 203 °C (dec.)
COc1ccc(NC(=O)OCc2cn(-c3cc4nc(C(=O)[O-])c(=O)[nH]c4cc3[N+](=O)[O-])cn2)cc1.[Na+] [Example 108] | – | 265 to 267 °C (dec.)
O=C(O)c1nc2cc(N3CCN(Cc4ccccc4)CC3)c([N+](=O)[O-])cc2[nH]c1=O [Example 60, 7-(4-Benzylpiperazine-1-yl)-3,4-dihydro-6-nitro-3-oxoquinoxaline-2-carboxylic Acid] | – | 278 to 280 °C
O=C(Nc1ccc(C(=O)O)cc1)OCc1cn(-c2cc3nc(C(=O)O)c(=O)[nH]c3cc2[N+](=O)[O-])ccc1=O [Example 307, 7-(3-((N-(4-Carboxyphenyl)carbamoyloxy)methyl)-4-pyridone-1-yl)-3,4-dihydro-6-nitro-3-oxoquinoxaline-2-carboxylic Acid] | – | 231 to 233 °C (dec.)
O=C(NCc1ccn(-c2cc3nc(C(=O)O)c(=O)[nH]c3cc2C(F)(F)F)c1)Nc1ccc(C(=O)O)cc1F [Example 80, 7-(3-(((4-Carboxy-2-fluorophenyl)aminocarbonylamino)-methyl)pyrrole-1-yl)-3,4-dihydro-3-oxo-6-trifluoromethylquinoxaline-2-carboxylic Acid] | – | 249 to 251 °C (dec.)
O=C(Cc1ccc(Br)cc1)Nc1cn(-c2cc3nc(C(=O)O)c(=O)[nH]c3cc2[N+](=O)[O-])ccc1=O [Example 136, 7-(3-((4-Bromobenzyl)carbonylamino)-4-pyridone-1-yl)-3,4-dihydro-6-nitro-3-oxoquinoxaline-2-carboxylic Acid] | – | 240 to 242 °C (dec.)
CCOC(=O)c1ccc(NC(=O)OCc2cn(-c3cc4nc(C(=O)O)c(=O)[nH]c4cc3[N+](=O)[O-])cn2)cc1 [Example 278, 3,4-Dihydro-7-(4-((N-(4-ethoxycarbonylphenyl)carbamoyloxy)methyl)imidazolyl)-6-nitro-3-oxoquinoxaline-2-carboxylic Acid] | – | 207 to 209 °C (dec.)
O=C(Nc1ccc(Br)cc1)Nc1cn(-c2cc3nc(C(=O)O)c(=O)[nH]c3cc2[N+](=O)[O-])ccc1=O [Example 128, 7-(3-((4-Bromophenyl)aminocarbonylamino)-4-pyridone-1-yl)-3,4-dihydro-6-nitro-3-oxoquinoxaline-2-carboxylic Acid] | – | 252 to 254 °C (dec.)
O=C(NCc1ccn(-c2cc3nc(C(=O)O)c(=O)[nH]c3cc2C(F)(F)F)c1)Nc1ccccc1 [Example 188, 3,4-Dihydro-3-oxo-7-(3-((phenylaminocarbonylamino)methyl)pyrrole-1-yl)-6-trifluoromethylquinoxaline-2-carboxylic Acid] | – | > 300 °C
O=C(NCc1cn(-c2cc3nc(C(=O)O)c(=O)[nH]c3cc2C(F)(F)F)cn1)Nc1ccc(C(=O)O)cc1 (as salt: salt) [Example 207, 7-(4-(((4-Carboxyphenyl)aminocarbonylamino)methyl)imidazole-1-yl)-3,4-dihydro-3-oxo-6-trifluoromethylquinoxaline-2-carboxylic Acid] | – | 255 °C (dec.)
O=C(Nc1ccc(Br)cc1)OCc1cn(-c2cc3nc(C(=O)O)c(=O)[nH]c3cc2[N+](=O)[O-])cn1 [Example 86, 7-(4-((N-(4-Bromophenyl)carbamoyloxy)methyl)imidazolyl)-3,4-dihydro-6-nitro-3-oxoquinoxaline-2-carboxylic Acid] | – | 270 to 272 °C (dec.)
O=C(c1nc2cc(N3CCOCC3)c([N+](=O)[O-])cc2[nH]c1=O)N1CCOCC1 [Example 138, 3,4-Dihydro-7-morpholino-6-nitro-3-oxoquinoxaline-2-carboxylic Morpholineamide] | – | 298 to 299 °C

Other lines, results leading:

Ki (AMPA receptor) | melting point | Structure (SMILES)
860 nM | 154 to 156 °C (dec.) | O=C(O)c1nc2cc(Oc3ccccc3)c([N+](=O)[O-])cc2[nH]c1=O [Example 62, 3,4-Dihydro-6-nitro-3-oxo-7-phenoxyquinoxaline-2-carboxylic Acid]
450 nM | > 300 °C | O=C(O)c1nc2cc(-n3ccnc3)c([N+](=O)[O-])cc2[nH]c1=O [Example 36, 3,4-Dihydro-7-(imidazole-1-yl)-6-nitro-3-oxoquinoxaline-2-carboxylic Acid]
28.2 nM | 251 to 253 °C (dec.) | O=C(Nc1ccccc1F)OCc1cn(-c2cc3nc(C(=O)O)c(=O)[nH]c3cc2[N+](=O)[O-])cn1 [Example 96]
630 nM | – | O=C(O)c1nc2cc(Br)c([N+](=O)[O-])cc2[nH]c1=O [Example 7, 7-Bromo-3,4-dihydro-6-nitro-3-oxoquinoxaline-2-carboxylic Acid]
– | > 300 °C | Nc1cn(-c2cc3nc(C(=O)O)c(=O)[nH]c3cc2[N+](=O)[O-])ccc1=O [Example 142, 7-(3-Amino-4-pyridone-1-yl)-3,4-dihydro-6-nitro-3-oxoquinoxaline-2-carboxylic Acid]
– | 213 to 215 °C (dec.) | O=C(O)c1nc2cc(C(F)(F)F)c([N+](=O)[O-])cc2[nH]c1=O [Example 163, 3,4-Dihydro-6-nitro-3-oxo-7-trifluoromethylquinoxaline-2-carboxylic Acid]
330 nM | 239 to 242 °C | Cc1cc2nc(C(=O)O)c(=O)[nH]c2cc1[N+](=O)[O-] [Example 8, 3,4-Dihydro-7-methyl-6-nitro-3-oxoquinoxaline-2-carboxylic Acid]
– | 253 to 255 °C | O=C(O)c1nc2cc(N3CCC(O)CC3)c([N+](=O)[O-])cc2[nH]c1=O [Example 61, 3,4-Dihydro-7-(4-hydroxypiperidine-1-yl)-6-nitro-3-oxoqinoxaline-2-carboxylic Acid]
1260 nM | – | O=C(O)c1nc2cc(Cl)c([N+](=O)[O-])cc2[nH]c1=O [Example 5, 7-Chloro-3,4-dihydro-6-nitro-3-oxoquinoxaline-2-carboxylic Acid]
– | > 300 °C | NC(=O)c1nc2cc(-n3ccc(=O)cc3)c([N+](=O)[O-])cc2[nH]c1=O [Example 70, 3,4-Dihydro-6-nitro-3-oxo-7-(4-pyridone-1-yl)quinoxaline-2-carboxamide]
– | 232 to 234 °C (dec.) | O=C(O)c1nc2cc(-n3ccnc3)c(C(F)(F)F)cc2[nH]c1=O [Example 168, 3,4-Dihydro-7-imidazolyl-3-oxo-6-trifluoromethylquinoxaline-2-carboxylic Acid]
– | 300 °C | O=C(O)c1nc2cc(-n3ccc(=O)cc3)c(C(F)(F)F)cc2[nH]c1=O [Example 169, 3,4-Dihydro-3-oxo-7-(4-pyridone-1-yl)-6-trifluoro-methylquinoxaline-2-carboxylic Acid]
– | > 300 °C | Nc1cc2[nH]c(=O)c(C(=O)O)nc2cc1F [Example 72, 6-Amino-3,4-dihydro-7-fluoro-3-oxoquinoxaline-2-carboxylic Acid]
910 nM | – | CN(C)c1cc2nc(C(=O)O)c(=O)[nH]c2cc1[N+](=O)[O-] [Example 39, 3,4-Dihydro-7-dimethylamino-6-nitro-3-oxoquinoxaline-2-carboxylic Acid]
– | 198 to 200 °C (dec.) | O=C(O)c1nc2cc(Oc3cccc([N+](=O)[O-])c3)c([N+](=O)[O-])cc2[nH]c1=O
2010 nM | – | O=C(O)c1nc2cc(F)c([N+](=O)[O-])cc2[nH]c1=O [Example 6, 3,4-Dihydro-7-fluoro-6-nitro-3-oxoquinoxaline-2-carboxylic Acid]
– | 300 °C | Nc1cc2nc(C(=O)O)c(=O)[nH]c2cc1[N+](=O)[O-] [Example 157, 7-Amino-3,4-dihydro-6-nitro-3-oxoquinoxaline-2-carboxylic Acid]
– | > 300 °C | O=C(O)Cc1cn(-c2cc3nc(C(=O)O)c(=O)[nH]c3cc2[N+](=O)[O-])cn1 [Example 303, 7-(4-(Carboxymethyl)imidazolyl)-3,4-dihydro-6-nitro-3-oxoquinoxaline-2-carboxylic Acid]
– | 173 to 175 °C | Cn1c(=O)c(C(=O)O)nc2cc(F)c([N+](=O)[O-])cc21 [Example 162, 3,4-Dihydro-7-fluoro-4-methyl-6-nitro-3-oxoquinoxaline-2-carboxylic Acid]
